Literature values, collected in patent US20030092774A1, “Methods for treating neoplastic, angiogenic, vascular, fibroblastic, and/or immunosuppressive iregularities of the eye and/or joint via administration of combretastatin based medicaments, and iontophoretic devices for delivering combretastatin based medicaments” (priority 2001, published 2003).

For COc1ccc(/C=C\c2cc(OC)c(OC)c(OC)c2)cc1O [combretastatin-A4, (cis)-1-(3′,4′,5′,-trimethoxyphenyl)-2-(3 ″-hydroxy-4″-methoxyphenyl)ethene], the “solubility in aqueous solution” value is given as “practically insoluble”.
